Earlier results as cited in PMC9732253, “Inhibition of the Phosphatidylinositol-3 Kinase Pathway Using Bimiralisib in Loss-of-Function NOTCH1-Mutant Head and Neck Cancer” (The Oncologist, 2022).

What was measured:
[1] = system: mTOR; conditions: cited from earlier work
[2] = system: other protein kinases; design: method as in PMID 28829592; conditions: biochemical assays; cited from earlier work

SMILES: Nc1cc(C(F)(F)F)c(-c2nc(N3CCOCC3)nc(N3CCOCC3)n2)cn1 [Bimiralisib, 5-(4,6-dimorpholino-1,3,5-triazin-2-yl)-4-(trifluoromethyl)pyridin-2-amine]
- Inhibition of mTOR [1]: potently inhibits
- Inhibition of other protein kinases [2]: does not significantly inhibit
